According to US4490529A, “Cysteic acid and homocysteic acid analogues of methotrexate and aminopterin” (Dana-Farber Cancer Institute, Inc., priority 1983, dated 1984):

Test: Solubility in water and precipitation behaviour
Assay type: physicochemical
Protocol: 4-Amino-4-deoxy-N^10 -methylpteroic acid dihydrate (720 mg, 2.0 mmoles) is added in small portions to a stirred solution of diethylphosphorocyanidate (915 mg, 5 mmoles) and triethylamine (500 mg, 5 mmoles) in N,N-dimethylformamide (DMF) (75 ml) previously dried over Linde 4A molecular sieves. The solution is stirred at room temperature overnight, and an extra 25% of diethyl phosphorocyanidate and Et3 N is added. TLC (silica gel, 4:1 chloroform-methanol) indicates the formation of the activated intermediate to be complete. The silylated D,L-homocysteic acid triethylammonium salt (1.8 g, 4 mmoles) is then added, and the reaction mixture is stirred at room temperature for 44 hours. After addition of a few milliliters of water, the solvent is removed with the aid of a rotary evaporator and the residue is dissolved in 3 percent ammonium bicarbonate, with a few drops of concentrated ammonia being added as needed. […] The solution is taken up in a minimum of H2 O with just enough Nh4 OH added to dissolve all the solid, and the solution is applied to a DEAE-cellulose column that has been pre-equilibrated with 3 percent ammonium bicarbonate and then washed to neutrality with H2 O. The column is eluted with a large volume of H2 O, and then again with 3% NH4 HCO3. […] Individual 5-10 ml volumes of the NH4 HCO3 eluate are monitored by TLC. […]

CN(Cc1cnc2nc(N)nc(N)c2n1)c1ccc(C(=O)NC(CCS(=O)(=O)O)C(=O)O)cc1 (racemic) [mAPA-D,L-HCysA, N-(4-Amino-4-deoxy-N^10-methylpteroyl)-D,L-homocysteic acid]
solubility in water: very soluble in water | precipitation from basic solution (adjustment of the pH to 6, in contrast to methotrexate): cannot be precipitated from basic solution on adjustment of the pH to 6
